Results on six compounds are retold here after PubChem BioAssay AID324 (DTP/NCI, 2004).

Toxic doses and inconclusive results are not listed.

The test system of this experiment is CD2F1 mice, AMSA-resistant P388 leukemia ip, median survival T/C. As to the kind of experiment: NCI In Vivo Anticancer Drug Screen. Data for tumor model P388 Leukemia resistant to AMSA; NSC 249992 (intraperitoneal) in CD2F1 (CDF1) mice. As to conditions: endpoint: median survival time, higher = longer survival. Here is the method:
The antitumor activity of compounds was measured in mice bearing transplantable tumors. Survival or tumor size were measured and the results are expressed as the measurement made in the treated group (T) divided by the measurement made in the vehicle treated control group (C). The tumor model used in this assay is P388 Leukemia resistant to AMSA; NSC 249992 (intraperitoneal) in CD2F1 (CDF1) mice

With `COc1cc(NS(C)(=O)=O)ccc1Nc1c2ccccc2nc2cc(C(F)(F)F)c(N)cc12`, the T/C by setting is: (dose: 13.0 mg/kg/injection, schedule: Q04DX003 (ip), vehicle: distilled water + Tween-80) 106 % of control; (dose: 21.6 mg/kg/injection, schedule: Q04DX003 (ip), vehicle: distilled water + Tween-80) 103 % of control; (dose: 36.0 mg/kg/injection, schedule: Q04DX003 (ip), vehicle: distilled water + Tween-80) 104 % of control; (dose: 60.0 mg/kg/injection, schedule: Q04DX003 (ip), vehicle: distilled water + Tween-80) 108 % of control; (dose: 64.8 mg/kg/injection, schedule: Q04DX002 (ip), vehicle: water) 114 % of control; (dose: 100.0 mg/kg/injection, schedule: Q04DX003 (ip), vehicle: distilled water + Tween-80) 103 % of control.

Regarding `CCN(CC)CCNc1ccc(C)c2sc3ccccc3c(=O)c12`, the T/C reads like this: (dose: 16.2 mg/kg/injection, schedule: Q01DX005 (ip), vehicle: saline) 101 % of control; (dose: 19.4 mg/kg/injection, schedule: Q01DX005 (ip), vehicle: water) 92 % of control; (dose: 27.0 mg/kg/injection, schedule: Q01DX005 (ip), vehicle: saline) 101 % of control; (dose: 45.0 mg/kg/injection, schedule: Q01DX005 (ip), vehicle: saline) 99 % of control; (dose: 54.0 mg/kg/injection, schedule: Q01DX005 (ip), vehicle: water) 90 % of control; (dose: 75.0 mg/kg/injection, schedule: Q01DX005 (ip), vehicle: saline) 94 % of control. For the same compound, the T/C reads like this: (dose: 90.0 mg/kg/injection, schedule: Q01DX005 (ip), vehicle: water) 89 % of control; (dose: 125.0 mg/kg/injection, schedule: Q01DX005 (ip), vehicle: saline) 90 % of control.

With `O=C(Nc1ccc(C2=NCCCN2)cc1)c1ccc(C(=O)Nc2ccc(C3=NCCCN3)cc2)cc1`, the T/C is 167 % of control (dose: 10.8 mg/kg/injection, schedule: Q04DX003 (ip), vehicle: Klucel (hydroxypropylcellulose) (HPC)); 185 % of control (dose: 18.0 mg/kg/injection, schedule: Q04DX003 (ip), vehicle: Klucel (hydroxypropylcellulose) (HPC)); 278 % of control (dose: 30.0 mg/kg/injection, schedule: Q04DX003 (ip), vehicle: Klucel (hydroxypropylcellulose) (HPC)); 95 % of control (dose: 50.0 mg/kg/injection, schedule: Q04DX003 (ip), vehicle: Klucel (hydroxypropylcellulose) (HPC)).

On to `c1ccc2c(NCCCCCCNc3c4ccccc4nc4ccccc34)c3ccccc3nc2c1`, for which the T/C was 123 % of control (dose: 1.94 mg/kg/injection, schedule: Q01DX009 (ip), vehicle: other); 123 % of control (dose: 2.59 mg/kg/injection, schedule: Q04DX003 (ip), vehicle: other); 110 % of control (dose: 4.32 mg/kg/injection, schedule: Q04DX003 (ip), vehicle: other); 94 % of control (dose: 7.2 mg/kg/injection, schedule: Q04DX003 (ip), vehicle: other); 93 % of control (dose: 7.78 mg/kg/injection, schedule: Q01DX001 (ip), vehicle: water); 150 % of control (dose: 10.0 mg/kg/injection, schedule: Q01DX009 (ip), vehicle: Klucel (hydroxypropylcellulose) (HPC)). In addition, the T/C (dose: 13.0 mg/kg/injection, schedule: Q01DX001 (ip), vehicle: water) is 98 % of control.

On to `COc1cccc2c1C(=O)c1c(O)c3c(c(O)c1C2=O)C[C@@](O)(C(C)=O)C[C@@H]3OC1CC(N(C)C)C(O)C(C)O1` (stereo not given in full), for which the T/C by setting is: (dose: 3.6 mg/kg/injection, schedule: Q04DX003 (ip), vehicle: water) 150 % of control; (dose: 6.0 mg/kg/injection, schedule: Q04DX003 (ip), vehicle: water) 168 % of control; (dose: 10.0 mg/kg/injection, schedule: Q04DX003 (ip), vehicle: water) 166 % of control; (dose: 16.7 mg/kg/injection, schedule: Q04DX003 (ip), vehicle: water) 107 % of control.

`COc1cccc2c1C(=O)c1c(O)c3c(c(O)c1C2=O)C[C@@](O)(C(C)=O)C[C@@H]3OC1CC(N)C(O)C(C)O1` (stereo not given in full): the T/C by setting is: (dose: 0.64 mg/kg/injection, schedule: Q04DX003 (ip), vehicle: water) 115 % of control; (dose: 0.65 mg/kg/injection, schedule: Q04DX003 (ip), vehicle: saline) 103 % of control; (dose: 0.97 mg/kg/injection, schedule: Q04DX003 (ip), vehicle: saline) 121 % of control; (dose: 1.08 mg/kg/injection, schedule: Q04DX003 (ip), vehicle: saline) 115 % of control; (dose: 1.08 mg/kg/injection, schedule: Q04DX003 (ip), vehicle: water) 118 % of control; (dose: 1.62 mg/kg/injection, schedule: Q04DX003 (ip), vehicle: saline) 123 % of control. The T/C reads like this: (dose: 1.8 mg/kg/injection, schedule: Q04DX003 (ip), vehicle: saline) 124 % of control; (dose: 3.0 mg/kg/injection, schedule: Q04DX003 (ip), vehicle: saline) 117 % of control; (dose: 3.0 mg/kg/injection, schedule: Q04DX003 (ip), vehicle: water) 123 % of control; (dose: 4.5 mg/kg/injection, schedule: Q04DX003 (ip), vehicle: saline) 119 % of control; (dose: 5.0 mg/kg/injection, schedule: Q04DX003 (ip), vehicle: water) 123 % of control.
